The target in assay [1] is anti-cortisol (17) Fab fragment. As to the kind of experiment: Surface plasmon resonance. Format: binding, murine. As to conditions: read-out: KD (SPR); determined in this work.
For assay [2], the system named is anti-cortisol (17) Fab fragment. As to the kind of experiment: Native MS direct ligand titration, KD by one-site binding fit. Details: species or system murine. As to conditions: native MS KD ratio.
In assay [3] the target is anti-cortisol (17) Fab fragment. In words: Initial ligand screening by native MS. In kind it is binding, murine. As to conditions: Fab 0.1 μM, ligand 100 nM to 10 μM.
For assay [4] the target is unchanged. As to conditions: read-out: KD (SPR); determined in previous work ref 9; cited from earlier work.

Each structure is given as a SMILES string. Read-outs that look alike come from different tables or passages of the source.

What is called Kd is the equilibrium constant for the complex coming apart. For the compound `C[C@]12CCC(=O)C=C1CC[C@@H]1[C@@H]2CC[C@@]2(C)[C@H]1CC[C@]2(O)C(=O)CO` [11-deoxycortisol], the Kd in assay [1] turned out to be 120 nM. Further, in assay [2], the “fold higher KD compared to corticosterone” value is reported as “more than 4 fold”. In addition, in assay [3], the “approximate KD range from initial ligand screening” value (“approximate KD range” below) is “submicromolar affinity”.

As for `C[C@]12CC[C@H]3[C@@H](CCC4=CC(=O)CC[C@@]43C)[C@@H]1CC[C@@H]2O` [testosterone], in assay [4], the Kd is 23000 ± 4000 nM.

As for `C[C@]12C=CC(=O)C=C1CC[C@@H]1[C@@H]2[C@@H](O)C[C@@]2(C)[C@H]1CC[C@]2(O)C(=O)CO` [prednisolone], in assay [4], the Kd is 13 ± 1 nM. In addition, the “approximate KD range” value in assay [3] is on record as “nanomolar range”.

Consider `CC(=O)[C@H]1CC[C@H]2[C@@H]3CCC4=CC(=O)CC[C@]4(C)[C@H]3CC[C@]12C` [progesterone], for which, in assay [4], the Kd was 15000 ± 3000 nM.

Take `C[C@]12CCC(=O)C=C1CC[C@@H]1[C@@H]2[C@@H](O)C[C@@]2(C)[C@H]1CC[C@]2(O)C(=O)CO` [cortisol]: the Kd in assay [4] was 7 ± 1 nM. For the same compound, the “approximate KD range” value in assay [3] is “nanomolar range”.

As for `C[C@]12C[C@H](O)[C@H]3[C@@H](CCC4=CC(=O)CC[C@@]43C)[C@@H]1CC[C@@H]2C(=O)CO` [corticosterone], in assay [4], the Kd was 31 ± 2 nM. The “approximate KD range” value in assay [3] is on record as “nanomolar range”.

The record behind these values is publication PMC11024979 (ACS Omega, 2024).
